Where two headings read alike, the source gives them in different places.

For data set [1], the target named is T1, human KAT2 (Homo sapiens, UniProt Q8N5Z0).
T1 construct: made in house; host or cells: insect Sf9 cells (baculovirus)
Briefly: Human KAT2 enzyme inhibition, microplate fluorescence assay of KYNA. It counts as biochemical. As to the method:
High-throughput screening assays for inhibitors of human KAT2 were conducted using a microplate fluorescence assay for kynurenine aminotransferase[26] with minor modifications. In these assays, KAT2 enzyme activities were measured in black 384-well untreated plates. The human KAT2 reaction mixture (20 μL) contained 10 ng/μL recombinant human KAT2, 1 mM L-KYN, 1 mM α-ketoglutaric acid, […], 0.005% Tween 20 and 150 mM AMP buffer (pH 9.5), and was added to 384-well plates containing compounds using a Multidrop dispenser (Thermo Fisher Scientific, USA). The compound library comprised about 13,000 compounds from the Drug Discovery Initiative at the University of Tokyo. The compound library includes about 9,600 diverse compounds for pilot screening and about 3,400 known bioactive compounds. All compounds were dissolved and diluted in DMSO to a final concentration of 10 μM. Reaction mixtures were incubated for 2 h at room temperature, and 20 μL aliquots of 300 mM zinc acetate (pH 5.5) were then added directly using a Multidrop dispenser. Fluorescence intensities of KYNA were measured using an ARVO X Multi Label Reader (PerkinElmer, USA) at an excitation wavelength of 340 nm and an emission wavelength of 460 nm. Assay quality was validated by calculating signal–background and Z’ factor. These assays identified approximately 20 candidate KAT2 inhibitors with potent inhibitory activity from about 13,000 compounds. Candidate compounds were validated in quadruplicate KAT2 enzyme activity assays.
Inhibitory activities of the identified compounds against KAT1 and KAT2 were measured using the enzyme activity assays described above. KAT1 reaction mixtures (20 μL) contained 10 ng/μL recombinant human KAT1, 1 mM L-KYN, 1 mM sodium pyruvate, 100 μM PLP, 0.005% Tween 20 and inhibitors at various concentrations in 150 mM 2-amino-2-methyl-1-propanol (AMP) buffer (pH 7.4 or 9.5). […] Following the addition of 20 μL aliquots of 300 mM zinc acetate, fluorescence intensities of KYNA were measured using an ARVO X Multi Label Reader (PerkinElmer, USA).
(§1) To determine steady state kinetic parameters for the substrate L-KYN, 50 μL reaction mixtures containing 10 ng/μL recombinant human KAT2, 1 mM α-KG, 100 μM PLP, 0.005% Tween 20, L-KYN at concentrations of 10, 5, 2.5, 1.25, 0.62, 0.31 and 0.15 mM and GL, GA or CBX or PF-04859989 at 4.5, 6.0 and 3.5 μM and 300 nM, respectively. Following incubation for 30 min at 37 °C, reactions were stopped by adding 3% perchloric acid at a 1:1 ratio. KYNA concentrations were measured using the same HPLC method as described above. Double reciprocal plots were used to determine types of inhibition. Competitive inhibition constants (Ki) for GL, GA and CBX were calculated using the global fit formula (GraphPad Prism v6.07)[60],[61] as follows: v=Vmax∗[S]/(Kmobs+[S])andKmobs=Km×(1+[I]/Ki), where v = initial velocity, Vmax = maximum velocity, [S] = substrate concentration, Km = Michaelis–Menten constant and [I] = inhibitor concentration. The Ki value of PF-04859989 was calculated using the global fit formula as follows: Vmaxinh=Vmax/(1+[I]/Ki)andKmobs=Vmaxinh×[S]/(Km+[S]), where Vmaxinh = maximum enzyme velocity for the concentration of inhibitor. IC50 values were determined by nonlinear curve fitting using GraphPad Prism v6.07. All statistical analyses were performed using GraphPad Prism v6.07.

For another data set, the target named is T2, mouse KAT2 (Mus musculus, UniProt Q9WVM8).
T2 construct: made in house; host or cells: insect Sf9 cells (baculovirus)
T2 sequence (Q9WVM8 30-425): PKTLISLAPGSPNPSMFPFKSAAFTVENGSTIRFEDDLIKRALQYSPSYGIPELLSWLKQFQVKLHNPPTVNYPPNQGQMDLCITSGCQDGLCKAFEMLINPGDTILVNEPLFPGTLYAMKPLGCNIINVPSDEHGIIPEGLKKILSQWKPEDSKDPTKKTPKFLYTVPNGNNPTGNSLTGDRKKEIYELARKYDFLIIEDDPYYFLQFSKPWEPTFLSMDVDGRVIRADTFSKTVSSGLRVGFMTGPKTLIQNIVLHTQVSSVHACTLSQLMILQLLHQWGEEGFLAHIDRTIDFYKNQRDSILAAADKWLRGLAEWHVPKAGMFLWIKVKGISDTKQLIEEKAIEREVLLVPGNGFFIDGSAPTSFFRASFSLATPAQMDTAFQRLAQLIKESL
Briefly: Mouse KAT2 enzyme inhibition, microplate fluorescence assay of KYNA. Format: biochemical. As to conditions: recombinant mouse KAT2, 1 mM L-KYN, AMP buffer pH 9.5; mean ± SEM. As to the method:
(§2) Inhibitory activities of the identified compounds against KAT1 and KAT2 were measured using the enzyme activity assays described above. KAT1 reaction mixtures (20 μL) contained 10 ng/μL recombinant human KAT1, 1 mM L-KYN, 1 mM sodium pyruvate, 100 μM PLP, 0.005% Tween 20 and inhibitors at various concentrations in 150 mM 2-amino-2-methyl-1-propanol (AMP) buffer (pH 7.4 or 9.5). Human and mouse KAT2 reaction mixtures (20 μL) contained 10 ng/μL recombinant human or mouse KAT2, 1 mM L-KYN, 1 mM α-ketoglutaric acid, 100 μM PLP, 0.005% Tween 20 and inhibitors at various concentrations in 150 mM AMP buffer (pH 9.5). Following the addition of 20 μL aliquots of 300 mM zinc acetate, fluorescence intensities of KYNA were measured using an ARVO X Multi Label Reader (PerkinElmer, USA).
as §1

Another data set has as its target T3, human KAT1 (Homo sapiens, UniProt Q16773).
T3 construct: made in house; host or cells: insect Sf9 cells (baculovirus)
T3 sequence (Q16773 1-422): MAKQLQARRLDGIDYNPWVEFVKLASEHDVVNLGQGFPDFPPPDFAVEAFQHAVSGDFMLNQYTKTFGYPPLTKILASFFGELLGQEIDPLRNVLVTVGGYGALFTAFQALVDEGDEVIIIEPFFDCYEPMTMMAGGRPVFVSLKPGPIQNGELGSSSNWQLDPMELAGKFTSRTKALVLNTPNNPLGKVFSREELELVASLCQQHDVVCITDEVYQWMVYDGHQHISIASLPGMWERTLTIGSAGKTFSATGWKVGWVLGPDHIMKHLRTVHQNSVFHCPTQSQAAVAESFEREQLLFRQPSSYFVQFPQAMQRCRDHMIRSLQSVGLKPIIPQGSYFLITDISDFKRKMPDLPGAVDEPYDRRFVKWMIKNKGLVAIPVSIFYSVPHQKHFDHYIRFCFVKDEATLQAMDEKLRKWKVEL
Kind of data set: Human KAT1 enzyme inhibition, microplate fluorescence assay of KYNA. As to conditions: recombinant human KAT1, 1 mM L-KYN, 1 mM sodium pyruvate. It counts as biochemical. As to the method: as §2, §1

A further data set addresses T4, human KAT3 (Homo sapiens, UniProt Q6YP21).
T4 construct: purchased OriGene Technologies, Inc
Briefly: Human KAT3 enzyme inhibition, HPLC analysis of KYNA. It counts as biochemical. As to conditions: recombinant human KAT3, 1 mM L-KYN, AMP buffer pH 9.5, HPLC; mean ± SEM. As to the method: KAT3 and KAT4 enzyme activities were measured using high performance liquid chromatography (HPLC) analyses of reaction products. Briefly, KAT3 reaction mixtures (50 μL) contained 10 ng/μL recombinant human KAT3, 1 mM L-KYN, 1 mM sodium pyruvate, 100 μM PLP, 0.005% Tween 20 and inhibitors at various concentrations in 150 mM AMP buffer (pH 9.5). KAT4 reaction mixtures (50 μL) contained recombinant human KAT4, 1 mM L-KYN, 1 mM α-ketoglutaric acid, 100 μM PLP, 0.005% Tween 20 and inhibitors at various concentrations in 100 mM Tris buffer (pH 7.5). Reaction mixtures were incubated for 1 h at 37 °C and reactions were then stopped by adding 3% perchloric acid at a ratio of 1:1. KYNA contents of reaction mixtures were then determined using HPLC (Shimadzu, Kyoto, Japan) following isocratic elution from a reverse-phase column (TSKgel ODS-100V, 3 μm, 4.6 mm [ID] × 150 mm [L]; Tosoh, Tokyo, Japan) using a mobile phase containing 10 mM sodium acetate with 2% acetonitrile (pH adjusted to 4.5) at flow rate of 0.8 mL/min. KYNA was detected using a fluorescence detector (RF-20Axs) at an excitation wavelength of 344 nm and an emission wavelength of 380 nm. […]

The target in a further data set is T5, human KAT4 (Homo sapiens, UniProt P00505).
T5 construct: made in house; host or cells: insect Sf9 cells (baculovirus)
T5 sequence (P00505 30-430): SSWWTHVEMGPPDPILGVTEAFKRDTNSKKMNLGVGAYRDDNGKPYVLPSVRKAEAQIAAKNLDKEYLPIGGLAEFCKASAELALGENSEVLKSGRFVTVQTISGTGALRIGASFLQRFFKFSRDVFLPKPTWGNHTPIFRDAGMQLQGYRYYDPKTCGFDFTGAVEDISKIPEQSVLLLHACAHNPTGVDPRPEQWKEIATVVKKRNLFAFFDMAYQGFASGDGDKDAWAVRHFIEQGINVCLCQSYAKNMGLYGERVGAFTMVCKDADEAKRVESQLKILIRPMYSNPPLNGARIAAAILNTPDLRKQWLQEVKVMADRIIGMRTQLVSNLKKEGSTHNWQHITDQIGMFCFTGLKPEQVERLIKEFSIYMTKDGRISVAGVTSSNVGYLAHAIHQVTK
Briefly: Human KAT4 enzyme inhibition, HPLC analysis of KYNA. It counts as biochemical. As to conditions: recombinant human KAT4, 1 mM L-KYN, Tris buffer pH 7.5, HPLC. The protocol:
KAT3 and KAT4 enzyme activities were measured using high performance liquid chromatography (HPLC) analyses of reaction products. Briefly, KAT3 reaction mixtures (50 μL) contained 10 ng/μL recombinant human KAT3, 1 mM L-KYN, 1 mM sodium pyruvate, 100 μM PLP, 0.005% Tween 20 and inhibitors at various concentrations in 150 mM AMP buffer (pH 9.5). KAT4 reaction mixtures (50 μL) contained recombinant human KAT4, 1 mM L-KYN, 1 mM α-ketoglutaric acid, 100 μM PLP, 0.005% Tween 20 and inhibitors at various concentrations in 100 mM Tris buffer (pH 7.5). Reaction mixtures were incubated for 1 h at 37 °C and reactions were then stopped by adding 3% perchloric acid at a ratio of 1:1. KYNA contents of reaction mixtures were then determined using HPLC (Shimadzu, Kyoto, Japan) following isocratic elution from a reverse-phase column (TSKgel ODS-100V, 3 μm, 4.6 mm [ID] × 150 mm [L]; Tosoh, Tokyo, Japan) using a mobile phase containing 10 mM sodium acetate with 2% acetonitrile (pH adjusted to 4.5) at flow rate of 0.8 mL/min. KYNA was detected using a fluorescence detector (RF-20Axs) at an excitation wavelength of 344 nm and an emission wavelength of 380 nm.
as §1, with “Double reciprocal plots were used to determine types of inhibition.” left out, “The Ki value of PF-04859989 was calculated using the global fit formula as follows: Vmaxinh=Vmax/(1+[I]/Ki)andKmobs=Vmaxinh×[S]/(Km+[S]), where Vmaxinh = maximum enzyme velocity for the concentration of inhibitor.” left out, “All statistical analyses were performed using GraphPad Prism v6.07.” left out

The target in data set [2] is T1, human KAT2. Kind of data set: Human KAT2 inhibition kinetics with varying KYN (Lineweaver-Burk, global fit), HPLC. Format: biochemical. As to conditions: for Ki: global fit formula, mean ± SEM, read-out: Ki (inhibition constant); for type of inhibition: inhibitor close to its IC50, Lineweaver-Burk. As to the method: as §1
In data set [3] the target is T1, human KAT2. More on the design: method as in PMID 18537204, PMID 27367665. As to conditions: read-out: reported IC50; cited from earlier work.
For data set [4] the following is noted: cited from earlier work.
The mark [5] stands for this setting: human KAT2 at physiological conditions (pH 7.4).
The mark [6] stands for this setting: recombinant human KAT2, 1 mM L-KYN, AMP buffer pH 9.5, mean ± SEM, three experiments.

T1 sequence (Q8N5Z0 30-425): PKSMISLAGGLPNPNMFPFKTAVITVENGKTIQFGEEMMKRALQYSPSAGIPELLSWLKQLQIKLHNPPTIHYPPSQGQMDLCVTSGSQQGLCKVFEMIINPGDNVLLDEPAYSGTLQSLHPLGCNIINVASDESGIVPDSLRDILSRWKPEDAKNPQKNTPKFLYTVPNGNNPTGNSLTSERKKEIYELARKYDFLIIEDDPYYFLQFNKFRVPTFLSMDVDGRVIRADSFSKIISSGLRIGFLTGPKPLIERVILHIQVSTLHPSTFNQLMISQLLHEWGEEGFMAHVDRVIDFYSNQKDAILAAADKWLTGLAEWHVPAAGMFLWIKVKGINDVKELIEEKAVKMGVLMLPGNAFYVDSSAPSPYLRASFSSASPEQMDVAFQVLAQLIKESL
T4 sequence (Q6YP21 whole entry): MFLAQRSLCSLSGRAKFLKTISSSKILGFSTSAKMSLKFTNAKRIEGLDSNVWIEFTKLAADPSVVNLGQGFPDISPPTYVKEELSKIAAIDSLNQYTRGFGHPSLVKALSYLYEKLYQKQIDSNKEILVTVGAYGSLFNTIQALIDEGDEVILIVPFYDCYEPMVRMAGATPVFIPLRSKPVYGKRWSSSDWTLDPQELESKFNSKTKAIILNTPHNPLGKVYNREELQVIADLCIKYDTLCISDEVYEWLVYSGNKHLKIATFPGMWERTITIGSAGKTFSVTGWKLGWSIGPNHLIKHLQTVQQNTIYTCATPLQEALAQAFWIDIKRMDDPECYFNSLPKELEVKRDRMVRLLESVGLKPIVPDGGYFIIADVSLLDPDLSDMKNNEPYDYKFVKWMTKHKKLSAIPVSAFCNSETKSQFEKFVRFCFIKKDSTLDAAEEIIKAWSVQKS

The term IC50 denotes the midpoint of a concentration-inhibition curve. The term Ki denotes a measure of affinity in units of concentration, obtained from inhibition or displacement. `CC1(C)[C@@H](O[C@H]2O[C@H](C(=O)O)[C@@H](O)[C@H](O)[C@H]2O[C@@H]2O[C@H](C(=O)O)[C@@H](O)[C@H](O)[C@H]2O)CC[C@]2(C)[C@H]3C(=O)C=C4[C@@H]5C[C@@](C)(C(=O)O)CC[C@]5(C)CC[C@@]4(C)[C@]3(C)CC[C@@H]12` [GL, glycyrrhizic acid]: the IC50 against human KAT2 [1] (setting [5]) was 7.93 ± 0.17 µM; at human KAT2 [1] (setting [6]) it was 4.51 ± 0.2 µM; on mouse KAT2 it was 86.2 ± 1.94 µM; at human KAT1, > 500 µM; on human KAT3, > 500 µM; on human KAT4 it was > 500 µM. In addition, at human KAT2 [2], the inhibition constant Ki is 10.4 ± 1.62 µM. Further, on human KAT2 [2], the type of inhibition entry is on record as “competitive inhibitors of KYN”.

Consider `O=C(O)C(Cc1ccccc1)N1C(=O)c2cc(Cl)c(Cl)cc2C1=O` (centres unmarked) [NS-1502], for which the IC50 at human KAT2 [3] was 315 µM.

Regarding `CC1(C)[C@@H](OC(=O)CCC(=O)O)CC[C@]2(C)[C@H]3C(=O)C=C4[C@@H]5C[C@@](C)(C(=O)O)CC[C@]5(C)CC[C@@]4(C)[C@]3(C)CC[C@@H]12` [CBX, carbenoxolone], the IC50 at human KAT2 [1] (setting [5]) was 3.34 ± 0.25 µM; at human KAT2 [1] (setting [6]) it was 3.9 ± 0.37 µM; on mouse KAT2, 19.8 ± 0.34 µM; on human KAT1, > 500 µM; at human KAT3, > 500 µM; on human KAT4, > 500 µM. Further, on human KAT2 [2], the Ki is 4.11 ± 0.37 µM. For the same molecule, on human KAT2 [2], the type of inhibition result is “competitive inhibitors of KYN”. Further, in data set [4], the “passage through the BBB” value is “failed to pass through the BBB”.

Consider `CC1(C)[C@@H](O)CC[C@]2(C)[C@H]3C(=O)C=C4[C@@H]5C[C@@](C)(C(=O)O)CC[C@]5(C)CC[C@@]4(C)[C@]3(C)CC[C@@H]12` [GA, glycyrrhetinic acid], for which the IC50 against human KAT2 [1] (setting [5]) was 9.87 ± 0.32 µM; at human KAT2 [1] (setting [6]) it was 6.96 ± 0.37 µM; at mouse KAT2 it was 56.8 ± 1.45 µM; on human KAT1, > 500 µM; at human KAT4, > 500 µM. Further, on human KAT2 [2], the Ki came to 6.92 ± 0.6 µM. At human KAT2 [2], the type of inhibition result is “competitive inhibitors of KYN”.

As to “(S)-4-(ethylsulfonyl)benzoylalanine [S-ESBA]”, on human KAT2 [3], the IC50 was ~1000 µM.

Take `N[C@H]1Cc2ccccc2N(O)C1=O` [PF-04859989]: the IC50 against human KAT2 [1] (KAT2, as determined in our assays) amounted to 0.3 µM. Besides, on human KAT2 [2], the inhibition constant Ki was found to be 0.22 ± 0.01 µM and the type of inhibition entry was “maximum reaction rates (Vmax) varied but the Michaelis–Menten constant (Km) did not change”.

These data come from article PMC6629613, “Selective and competitive inhibition of kynurenine aminotransferase 2 by glycyrrhizic acid and its analogues” (Scientific Reports, 2019).
